pKi: −log10 of the molar value.
Target: T1, glucocorticoid receptor (Homo sapiens, UniProt P04150)
T1 construct: host or cells: A549 human lung epithelial cells (sonicated cell extract)
T1 sequence (P04150 1-777): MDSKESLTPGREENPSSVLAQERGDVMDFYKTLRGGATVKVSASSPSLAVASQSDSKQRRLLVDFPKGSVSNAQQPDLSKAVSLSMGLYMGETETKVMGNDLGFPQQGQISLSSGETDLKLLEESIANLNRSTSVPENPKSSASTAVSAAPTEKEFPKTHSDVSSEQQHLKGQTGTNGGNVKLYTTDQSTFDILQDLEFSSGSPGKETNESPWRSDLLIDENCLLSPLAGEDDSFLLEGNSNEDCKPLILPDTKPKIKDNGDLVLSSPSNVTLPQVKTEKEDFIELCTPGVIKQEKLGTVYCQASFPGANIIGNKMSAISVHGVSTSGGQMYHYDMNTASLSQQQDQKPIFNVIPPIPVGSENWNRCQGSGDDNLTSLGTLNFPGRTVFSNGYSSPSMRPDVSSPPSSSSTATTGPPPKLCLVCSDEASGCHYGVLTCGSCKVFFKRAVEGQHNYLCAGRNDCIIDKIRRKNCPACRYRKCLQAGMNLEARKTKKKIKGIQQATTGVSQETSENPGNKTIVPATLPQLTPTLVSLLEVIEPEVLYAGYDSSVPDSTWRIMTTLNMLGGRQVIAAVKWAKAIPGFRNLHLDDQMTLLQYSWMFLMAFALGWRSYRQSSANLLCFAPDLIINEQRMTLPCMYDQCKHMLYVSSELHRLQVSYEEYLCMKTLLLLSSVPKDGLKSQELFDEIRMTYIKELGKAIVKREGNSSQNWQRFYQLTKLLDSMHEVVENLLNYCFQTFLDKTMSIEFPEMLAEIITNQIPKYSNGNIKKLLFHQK
Test: Glucocorticoid Receptor Binding Assay ([3H]-dexamethasone displacement, A549 cell extract)
Conditions: A549 human lung epithelial cell extract, 1.86 nM [3H]-dexamethasone; read-out: GR Ki
Outline: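 A549 cell extract (50-200 ug; buffer 50 mM Tris-HCl pH 7.2 with glycerol, NaCl, MgCl2, EDTA, 10 mM molybdate) incubated with 1.86 nM [3H]-dexamethasone and test compound, 16 h at 4 °C. Unbound ligand removed with dextran-coated charcoal; bound radioactivity counted. IC50 converted to Ki via Cheng-Prusoff.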

pKi | SMILES
≥ 6.30 | Cc1cc(C2(c3cc(C)c(O)c(C)c3)C(=O)N(Cc3c(C)cccc3C)c3ccccc32)cc(C)c1O [Example 107, 1-(2,6-Dimethyl-benzyl)-3,3-bis-(4-hydroxy-3,5-dimethyl-phenyl)-1,3-dihydro-indol-2-one]
≥ 6.30 | Cc1cc(C2(c3cc(C)c(O)c(C)c3)C(=O)N(Cc3cc(C(F)(F)F)ccc3F)c3ccccc32)cc(C)c1O [Example 112, 1-(2-Fluoro-5-trifluoromethyl-benzyl)-3,3-bis-(4-hydroxy-3,5-dimethyl-phenyl)-1,3-dihydro-indol-2-one]
≥ 6.30 | Cc1cc(C2(c3cc(C)c(O)c(C)c3)C(=O)N(C3CCCC3)c3ccccc32)cc(C)c1O [Example 114, 1-Cyclopentyl-3,3-bis-(4-hydroxy-3,5-dimethyl-phenyl)-1,3-dihydro-indol-2-one]
≥ 6.30 | Cc1cc(C2(c3cc(C)c(O)c(C)c3)C(=O)N(Cc3ccc(N)cc3)c3ccccc32)cc(C)c1O [Example 117, 11-(4-Amino-benzyl)-3,3-bis-(4-hydroxy-3,5-dimethyl-phenyl)-1,3-dihydro-indol-2-one]
≥ 6.30 | Cc1cc(C2(c3cc(C)c(O)c(C)c3)C(=O)N(Cc3cccc(N)c3)c3ccccc32)cc(C)c1O [Example 118, 1-(3-Amino-benzyl)-3,3-bis-(4-hydroxy-3,5-dimethyl-phenyl)-1,3-dihydro-indol-2-one]
≥ 6.30 | Cc1cc(C2(c3cc(C)c(O)c(C)c3)C(=O)N(CCc3scnc3C)c3ccccc32)cc(C)c1O [Example 121, 3,3-Bis-(4-hydroxy-3,5-dimethyl-phenyl)-1-[2-(4-methyl-thiazol-5-yl)-ethyl]-1,3-dihydro-indol-2-one]
≥ 6.30 | COc1ccc(N2C(=O)C(c3cc(C)c(O)c(C)c3)(c3cc(C)c(O)c(C)c3)c3ccccc32)cc1 [Example 128, 3,3-Bis-(4-hydroxy-3,5-dimethyl-phenyl)-1-(4-methoxy-phenyl)-1,3-dihydro-indol-2-one]
≥ 6.30 | COc1cccc(N2C(=O)C(c3cc(C)c(O)c(C)c3)(c3cc(C)c(O)c(C)c3)c3ccccc32)c1 [Example 134, 3,3-Bis-(4-hydroxy-3,5-dimethyl-phenyl)-1-(3-methoxy-phenyl)-1,3-dihydro-indol-2-one]
≥ 6.30 | Cc1cc(C2(c3cc(C)c(O)c(C)c3)C(=O)N(c3cccnc3)c3ccccc32)cc(C)c1O [Example 135, 3,3-Bis-(4-hydroxy-3,5-dimethyl-phenyl)-1-pyridin-3-yl-1,3-dihydro-indol-2-one]
≥ 6.30 | Cc1cc(C2(c3cc(C)c(O)c(C)c3)C(=O)N(c3cccc(Br)c3)c3ccccc32)cc(C)c1O [Example 139, 1-(3-Bromo-phenyl)-3,3-bis-(4-hydroxy-3,5-dimethyl-phenyl)-1,3-dihydro-indol-2-one]

Further lines, the molecule ahead of its results:

SMILES | pKi
Cc1cc(C2(c3cc(C)c(O)c(C)c3)C(=O)N(Cc3ccc(F)cc3)c3ccccc32)cc(C)c1O [Example 2] | ≥ 6.30
Cc1cc(C2(c3cc(C)c(O)c(C)c3)C(=O)N(Cc3ccc(C(C)(C)C)cc3)c3ccccc32)cc(C)c1O [Example 7, 1-(4-tert-Butyl-benzyl)-3,3-bis-(4-hydroxy-3,5-dimethyl-phenyl)-1,3-dihydro-indol-2-one] | ≥ 6.00
Cc1cc(C2(c3cc(C)c(O)c(C)c3)C(=O)N(Cc3cccc4ccccc34)c3ccccc32)cc(C)c1O [Example 10, 3,3-Bis-(4-hydroxy-3,5-dimethyl-phenyl)-1-naphthalen-1-ylmethyl-1,3-dihydro-indol-2-one] | ≥ 5.00
COc1ccc2c(c1)C(c1cc(C)c(O)c(C)c1)(c1cc(C)c(O)c(C)c1)C(=O)N2Cc1ccccc1 [Example 16, 1-Benzyl-3,3-bis-(4-hydroxy-3,5-dimethyl-phenyl)-5-methoxy-1,3-dihydro-indol-2-one] | ≥ 6.30
Cc1cc(C2(c3ccc(O)cc3)C(=O)N(Cc3ccccc3)c3ccccc32)cc(C)c1O (stereo not shown) [Example 29, 1-Benzyl-3-(4-hydroxy-3,5-dimethyl-phenyl)-3-(4-hydroxy-phenyl)-1,3-dihydro-indol-2-one] | ≥ 6.30
COc1ccccc1C(=O)CN1C(=O)C(c2cc(C)c(O)c(C)c2)(c2cc(C)c(O)c(C)c2)c2ccccc21 [Example 44, 3,3-Bis-(4-hydroxy-3,5-dimethyl-phenyl)-1-[2-(2-methoxy-phenyl)-2-oxo-ethyl]-1,3-dihydro-indol-2-one] | ≥ 6.30
COc1cccc(C(=O)CN2C(=O)C(c3cc(C)c(O)c(C)c3)(c3cc(C)c(O)c(C)c3)c3ccccc32)c1 [Example 45, 3,3-Bis-(4-hydroxy-3,5-dimethyl-phenyl)-1-[2-(3-methoxy-phenyl)-2-oxo-ethyl]-1,3-dihydro-indol-2-one] | ≥ 6.30
COc1ccc(C(=O)CN2C(=O)C(c3cc(C)c(O)c(C)c3)(c3cc(C)c(O)c(C)c3)c3ccccc32)cc1 [Example 46, 3,3-Bis-(4-hydroxy-3,5-dimethyl-phenyl)-1-[2-(4-methoxy-phenyl)-2-oxo-ethyl]-1,3-dihydro-indol-2-one] | ≥ 6.30
COc1ccc(OC)c(C(=O)CN2C(=O)C(c3cc(C)c(O)c(C)c3)(c3cc(C)c(O)c(C)c3)c3ccccc32)c1 [Example 49, 1-[2-(2,5-Dimethoxy-phenyl)-2-oxo-ethyl]-3,3-bis-(4-hydroxy-3,5-dimethyl-phenyl)-1,3-dihydro-indol-2-one] | ≥ 6.30
Cc1cc(C2(c3cc(C)c(O)c(C)c3)C(=O)N(Cc3ccccc3C#N)c3ccccc32)cc(C)c1O [Example 51, 2-[3,3-Bis-(4-hydroxy-3,5-dimethyl-phenyl)-2-oxo-2,3-dihydro-indol-1-ylmethyl]-benzonitrile] | ≥ 6.30
Cc1cc(C2(c3cc(C)c(O)c(C)c3)C(=O)N(Cc3ccc(Cl)c(Cl)c3)c3ccccc32)cc(C)c1O [Example 52, 1-(3,4-Dichloro-benzyl)-3,3-bis-(4-hydroxy-3,5-dimethyl-phenyl)-1,3-dihydro-indol-2-one] | ≥ 6.30
COC(=O)c1cccc(CN2C(=O)C(c3cc(C)c(O)c(C)c3)(c3cc(C)c(O)c(C)c3)c3ccccc32)c1 [Example 55, 3-[3,3-Bis-(4-hydroxy-3,5-dimethyl-phenyl)-2-oxo-2,3-dihydro-indol-1-ylmethyl]-benzoic acid methyl ester] | ≥ 6.30
Cc1cc(C2(c3cc(C)c(O)c(C)c3)C(=O)N(Cc3ccc(C(F)(F)F)cc3)c3ccccc32)cc(C)c1O [Example 57, 3,3-Bis-(4-hydroxy-3,5-dimethyl-phenyl)-1-(4-trifluoromethyl-benzyl)-1,3-dihydro-indol-2-one] | ≥ 6.30
Cc1cc(C2(c3cc(C)c(O)c(C)c3)C(=O)N(Cc3cccc(Cl)c3)c3ccccc32)cc(C)c1O [Example 60, 1-(3-Chloro-benzyl)-3,3-bis-(4-hydroxy-3,5-dimethyl-phenyl)-1,3-dihydro-indol-2-one] | ≥ 6.30
Cc1cc(C2(c3cc(C)c(O)c(C)c3)C(=O)N(Cc3cccc(C(F)(F)F)c3)c3ccccc32)cc(C)c1O [Example 61, 3,3-Bis-(4-hydroxy-3,5-dimethyl-phenyl)-1-(3-trifluoromethyl-benzyl)-1,3-dihydro-indol-2-one] | ≥ 6.30
Cc1cc(C2(c3cc(C)c(O)c(C)c3)C(=O)N(Cc3ccc(Br)cc3F)c3ccccc32)cc(C)c1O [Example 81, 1-(4-Bromo-2-fluoro-benzyl)-3,3-bis-(4-hydroxy-3,5-dimethyl-phenyl)-1,3-dihydro-indol-2-one] | ≥ 6.30
Cc1cc(C2(c3cc(C)c(O)c(C)c3)C(=O)N(Cc3ccc(O)cc3)c3ccccc32)cc(C)c1O [Example 88, 1-(4-Hydroxy-benzyl)-3,3-bis-(4-hydroxy-3,5-dimethyl-phenyl)-1,3-dihydro-indol-2-one] | ≥ 6.30
Cc1nc(CN2C(=O)C(c3cc(C)c(O)c(C)c3)(c3cc(C)c(O)c(C)c3)c3ccccc32)cs1 [Example 89, 3,3-Bis-(4-hydroxy-3,5-dimethyl-phenyl)-1-(2-methyl-thiazol-4-ylmethyl)-1,3-dihydro-indol-2-one] | ≥ 6.00
Cc1ccc2c(c1)C(c1cc(C)c(O)c(C)c1)(c1cc(C)c(O)c(C)c1)C(=O)N2Cc1csc(C)n1 [Example 93, 3,3-Bis-(4-hydroxy-3,5-dimethyl-phenyl)-5-methyl-1-(2-methyl-thiazol-4-ylmethyl)-1,3-dihydro-indol-2-one] | ≥ 5.00
Cc1cc(C2(c3cc(C)c(O)c(C)c3)C(=O)N(Cc3ccccn3)c3ccccc32)cc(C)c1O [Example 100, 3,3-Bis-(4-hydroxy-3,5-dimethyl-phenyl)-1-pyridin-2-ylmethyl-1,3-dihydro-indol-2-one] | ≥ 6.30
Cc1cc(C2(c3cc(C)c(O)c(C)c3)C(=O)N(CC3CC3)c3ccccc32)cc(C)c1O [Example 105, 1-Cyclopropylmethyl-3,3-bis-(4-hydroxy-3,5-dimethyl-phenyl)-1,3-dihydro-indol-2-one] | ≥ 6.30
